# In patent US20100081723A1, “Memantine For The Treatment Of Childhood Behavioral Disorders” (priority 2004, published 2010):
# Tests used:
# [1] = system: hyperkinetic children, children with attention deficit disorder (ADD); conditions: in vivo; cited from earlier work
# autistic children = conditions: small double-blind, placebo-controlled study; cited from earlier work
# [2] = system: patients with neurodegenerative disorders; conditions: cited from earlier work
# [3] = system: pediatric patients diagnosed with ADHD combined type; test: Open-label ADHD study: overall efficacy, tolerability and patient disposition; format: in vivo, human
# Procedure: (§1) The primary objective of this study was to provide preliminary safety and tolerability evaluations of memantine in pediatric patients with ADHD combined type. The secondary objectives of the study were to evaluate the pharmacokinetics of memantine in this patient population, and to provide preliminary evaluations of efficacy on effect based on a 8-week administration of memantine.
# (§2) Design. This clinical trial was conducted as an open-label, single center, dose-finding outpatient study assessing memantine in pediatric patients diagnosed with ADHD combined type (DSM-IV-TR™ criteria). ADHD combined type is characterized by the presence of significant inattentive and hyperactive/impulsive symptomotology.
# (§3) Dosages. Sixteen (16) outpatients with a diagnosis of ADHD combined type received treatment with memantine for a total of 8 weeks. Patients were enrolled in to two groups of 8 patients each, Cohort 1 and Cohort 2. Dose adjustments were permitted for patients experiencing dose-limiting adverse events. For Cohort 1 patients, treatment consisted of a 4 week titration period from a starting dose of 2.4 mg/day at the start of week 0, to 4.8 mg/day at the start of week 1, to 7.2 mg/day at the start of Week 2 to a maximum dose of 10 mg/day at the start of week 3, with a maintenance dose of 10 mg/day continuing to the end of Week 8. For Cohort 2 patients, treatment consisted of a 4-week titration period from a starting dose of 4.8 mg/day at the start of Week 0, to 10 mg/day at the start of Week 1, to 14.8 mg/day at the start of Week 2, to a maximum dose of 20 mg/day at the start of Week 3, with a maintenance dose of 20 mg/day continuing to the end of Week 8.
# (§4) Patients who missed 2 consecutive visits were discontinued from the study. […] The “Safety Population” consisted of all patients who took at least one dose of study medication. The “Intent-to-Treat (ITT) Population” consisted of all patients in the safety population with at least one post baseline efficacy assessment of ADHD-IV-RS or CGI-ADHD-S. ADHD-IV-RS or CGI-ADHD-S were administered 4 times per patient, once at Screening, once at baseline, once at the end of Week 4 and once at the end of Week 8. […] Those patients unable to tolerate the minimum daily dose after the Week 1 of dosing were discontinued from the study without replacement.
# Adverse events. Adverse event (AE) monitoring was performed at all study visits except Screening, including early termination. An AE is any untoward medical occurrence in a patient or clinical investigation subject administered a pharmaceutical product. It is not necessary that the AE have a causal relationship to treatment with the product.
# An AE therefore is any unfavorable and unintended sign (for example, a clinically significant abnormal laboratory finding) symptom, or disease temporally associated with the use of study medication, whether or not considered related to study medication. […] An AE occurring during the open-label treatment period is counted as a treatment-emergent AE (TEAE) if it is not present prior to the first dose of study medication or if it is present prior to the first dose of study medication but increases in severity following the first dose of study medication.
# The number (percentage) of patients with TEAEs were tabulated by body system and preferred term. Within a specific category (i.e., a specific body system or preferred term), the patient was counted only once if the patient had more than one event reported. […]
# NMDA receptor = conditions: uncompetitive antagonist; cited from earlier work
# [4] = system: pediatric patients diagnosed with ADHD combined type; test: Open-label study of memantine in pediatric ADHD combined type: ADHD-IV-RS; format: in vivo, human; conditions: for ADHD-IV-RS change from baseline, Week 4 (mean) / ADHD-IV-RS change from baseline, Week 8 (mean ± SD) / ADHD-IV-RS score, Week 4 (mean ± SD) / ADHD-IV-RS score, Week 8 (mean ± SD) / ADHD-IV-RS change from baseline, Week 4 (mean ± SD): ITT population
# Text: The Attention Deficit/Hyperactivity Disorder Rating Scale, Fourth Edition-Parent Version (ADHD-IV-RS) assesses each of the 18 individual criteria symptoms of ADHD in DSM-IV-TR™ on a severity grid (0=not present, 3=severe; overall minimum score=0, maximum score=54) (DuPaul et al., ADHD Rating Scale-IV: Checklists, Norms, and Clinical Interpretations 1998. New York: The Guilford Press). Inattention symptoms comprise the odd-numbered items, and hyperactive-impulsive symptoms are represented by the even-numbered items. The scale takes approximately 10 to 15 minutes to complete. […] It is to be completed by the patient's parent or legal guardian at Screening (part 1.1), Baseline, and from two to eight times during Visits 3 to 10, or upon study discontinuation.
# as §1, §2
# (§5) Patient Population. The study enrolled sixteen (16) male or female outpatients between the ages of 6 and 12 years, mean age of 8 years, diagnosed with ADHD combined type by DSM-IV-TR™ criteria based on clinical evaluation and a semi-structured interview, the Schedule for Affective Disorders and Schizophrenia for School-Age Pediatric patients-Present and Lifetime (K-SADS-PL).
# as §3, §4
# Efficacy parameters used for evaluation were the ADHD-IV-RS, CGI-ADHD-S, CCPT-II, Woodcock Johnson III reading and math fluency tests, and the Stroop test, described above.
# The primary analysis for each efficacy parameter was based on observed cases. Only patients completing the evaluation were included in the OC analysis, missing data were not imputed. A last observation carried forward (LOCF) analysis was also performed for each efficacy assessment. […]
# [5] = cited from earlier work
# [6] = aqueous media; cited from earlier work
# [7] = system: pediatric patients diagnosed with ADHD combined type; test: Open-label study of memantine in pediatric ADHD combined type: CGI-ADHD-S; format: in vivo, human; conditions: Cohort 2, OC analysis, patients who completed the evaluation, end of 8 weeks; 100% moderately or markedly ill at baseline
# Procedure: The Clinical Global Impression-ADHD-Severity (CGI-S) is a 7-point scale (1 [not ill] to 7 [extremely ill]) to be assessed by the Investigator at Screening (part 1.1), Baseline, and from two to eight times during Visits 3 to 10, or upon study discontinuation.
# as §2, §5
# Dosages. Sixteen (16) outpatients with a diagnosis of ADHD combined type received treatment with memantine for a total of 8 weeks. Patients were enrolled in to two groups of 8 patients each, Cohort 1 and Cohort 2. Dose adjustments were permitted for patients experiencing dose-limiting adverse events. […]
# [8] = system: cytochrome P-450 (CYP 450) isoenzymes; conditions: in vitro; cited from earlier work
# [9] = system: patients with moderate to severe dementia of the Alzheimer's type; conditions: cited from earlier work
# [10] = system: autistic spectrum disorders; conditions: in vivo; cited from earlier work
# autism = conditions: in vivo; cited from earlier work
# [11] = Cohort 1 (up to 10 mg/day), LOCF
# [12] = Cohort 2 (up to 20 mg/day), LOCF
compound,measurement,setting,value
"NC12CC3CC(CC(C3)C1)C2 [amantadine, 1-aminoadamantane]",Effects in hyperkinetic children and children with ADD,[1],favorable effects
same,Measures of hyperactivity and irritability,autistic children,statistically significant improvement
"CC12CC3CC(C)(C1)CC(N)(C3)C2.Cl [memantine, 1-amino-3,5-dimethyladamantane hydrochloride]",Safety and tolerability profile,[2]; 2297 patients in 27 clinical trials,acceptable
same,Most common adverse events,"[2]; clinical trials, relatively rare","dizziness, headache, constipation, and confusion"
same,Tolerability in patients with ADHD,"[3]; 8-week open-label treatment, up to 10 or 20 mg/day",well tolerated
same,Patients discontinued for insufficient therapeutic efficacy,"[3]; Cohort 1, 8 patients, all discontinued prior to week 8",7
same,Behavior and symptomology of combined type ADHD (in words),[3]; Cohort 2 (up to 20 mg/day),demonstrated improvements
same,Patients discontinued for insufficient therapeutic efficacy,"[3]; Cohort 2, 8 patients, 4 completed the study",3
same,Efficacy after 8 weeks of treatment (in words),[3]; the 25% of patients completing the study,improvement in two efficacy parameters was observed
same,Affinity for the NMDA receptor,NMDA receptor,low to moderate
same,"ADHD-IV-RS change from baseline, Week 4 (mean)",[4]; [11],−3.3
same,"ADHD-IV-RS change from baseline, Week 8 (mean ± SD)",[4]; [11],−3.8 ± 2.31
same,"ADHD-IV-RS score, Week 4 (mean ± SD)",[4]; [11],42.8 ± 8.33
same,"ADHD-IV-RS score, Week 8 (mean ± SD)",[4]; [11],40.9 ± 8.53
same,"ADHD-IV-RS change from baseline, Week 4 (mean ± SD)","[4]; Cohort 1 (up to 10 mg/day), OC",−3.5 ± 2.38
same,"ADHD-IV-RS score, Week 4 (mean ± SD)","[4]; Cohort 1 (up to 10 mg/day), OC",42.8 ± 8.33
same,"ADHD-IV-RS change from baseline, Week 4 (mean)",[4]; [12],−10.9
same,"ADHD-IV-RS change from baseline, Week 8 (mean ± SD)",[4]; [12],−9 ± 10.00
same,"ADHD-IV-RS score, Week 4 (mean ± SD)",[4]; [12],31.3 ± 13.05
same,"ADHD-IV-RS score, Week 8 (mean ± SD)",[4]; [12],32.9 ± 12.76
same,"ADHD-IV-RS change from baseline, Week 4 (mean ± SD)","[4]; Cohort 2 (up to 20 mg/day), OC",−11. ± 59.65
same,"ADHD-IV-RS change from baseline, Week 8 (mean ± SD)","[4]; Cohort 2 (up to 20 mg/day), OC",−16.5 ± 8.19
same,"ADHD-IV-RS score, Week 4 (mean ± SD)","[4]; Cohort 2 (up to 20 mg/day), OC",29.5 ± 13.32
same,"ADHD-IV-RS score, Week 8 (mean ± SD)","[4]; Cohort 2 (up to 20 mg/day), OC",22.3 ± 8.66
same,Effect on ADHD-IV-RS (in words),"[4]; Cohort 2, end of 8 weeks, OC analysis",showed improvement
same,Bioavailability after an oral dose,"[5]; adult humans, oral",100%
same,CSF/serum ratio,[5]; adult humans,0.52
same,Metabolism,[5]; adult humans,minimal
same,"Effect of food, sex or age on pharmacokinetic profile",[5]; in vivo,not affected
same,Solubility,[6],highly soluble
same,CGI-ADHD-S: patients considered borderline or markedly ill,[7],75%
same,Inhibition of CYP 450 isoenzymes,[8],does not inhibit
same,"Cognitive, functional and global assessments","[9]; 2 US studies, outpatients ages 50-93, moderate to severe Alzheimer's dementia",significant improvement
same,Care dependency and global change relative to placebo,"[9]; study 9403, Latvian nursing home patients, Alzheimer's disease or vascular dementia (MMSE<10)",significant improvement
Cc1nc2n(c(=O)c1CCN1CCC(c3noc4cc(F)ccc34)CC1)CCCC2 [risperidone],Adverse effects associated with treatment,[10],"weight gain, increased appetite, fatigue, drowsiness, tremor and drooling"
secretin: a synthetic form of the natural human hormone secretin developed by RepliGen for the potential treatment of autism,Autistic behavior compared to placebo,autism,did not demonstrate significant improvement
